Results from PubChem BioAssay (NCI).
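Dose response: 5 concentrations. Exposure: 48 h. Format: 96-well plates. Endpoint: linear interpolation; highest concentration if not reached. TGI denotes the concentration required for complete inhibition of growth.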

Tests used:
Test in all cases: DTP human tumour cell line panel, 48 h
[1] = tested on: HCC-2998 colon
[2] = tested on: SN12C renal
[3] = tested on: M19-MEL melanoma
[4] = tested on: UACC-257 melanoma
[5] = tested on: OVCAR-8 ovarian
[6] = tested on: DMS 114 small cell lung
[7] = tested on: NCI-H23 lung
[8] = tested on: OVCAR-4 ovarian
[9] = tested on: SR leukemia
[10] = tested on: SNB-19 CNS
[11] = tested on: LOX IMVI melanoma
[12] = tested on: A549 NSCLC
[13] = tested on: SNB-78 CNS
[14] = tested on: UACC-62 melanoma
[15] = tested on: RXF 393 renal
[16] = tested on: MALME-3M melanoma
[17] = tested on: NCI-H460 lung
[18] = tested on: U251 CNS
[19] = tested on: OVCAR-5 ovarian
[20] = tested on: SK-OV-3 ovarian
[21] = tested on: SK-MEL-5 melanoma
[22] = tested on: HOP-92 NSCLC
[23] = tested on: M14 melanoma
[24] = tested on: K-562 leukemia
[25] = tested on: DMS 273 small cell lung
[26] = tested on: HCT-15 colon
[27] = tested on: SF-268 CNS
[28] = tested on: TK-10 renal
[29] = tested on: ACHN renal
[30] = tested on: HCT-116 colon
[31] = tested on: HL-60(TB) leukemia
[32] = tested on: SF-539 CNS
[33] = tested on: RPMI-8226 leukemia
[34] = tested on: OVCAR-3 ovarian
[35] = tested on: LXFL 529 NSCLC
[36] = tested on: MOLT-4 leukemia
[37] = tested on: SF-295 CNS
[38] = tested on: DLD-1 colon
[39] = tested on: IGROV1 ovarian
[40] = tested on: SK-MEL-28 melanoma
[41] = tested on: COLO 205 colon
[42] = tested on: KM12 colon
[43] = tested on: HT29 colon
[44] = tested on: UO-31 renal
[45] = tested on: CAKI-1 renal
[46] = tested on: SW-620 colon
[47] = tested on: RXF-631 renal
[48] = tested on: NCI-H226 lung
[49] = tested on: SNB-75 CNS
[50] = tested on: 786-0 renal
[51] = tested on: KM20L2 colon
[52] = tested on: XF 498 CNS
[53] = tested on: NCI-H522 lung
[54] = tested on: EKVX NSCLC
[55] = tested on: SK-MEL-2 melanoma
[56] = tested on: CCRF-CEM leukemia
[57] = tested on: A498 renal
[58] = tested on: HOP-62 NSCLC

Compound `CC1(C)C(=NN=C(N)N)C(C)(C)C1=NN=C(N)N` has a TGI [1] greater than 100 µM, a TGI [2] greater than 100 µM and a TGI [3] greater than 100 µM. The TGI [4] was greater than 100 µM, the TGI [5] was greater than 100 µM and the TGI [6] was greater than 100 µM. It also gave a TGI [7] greater than 100 µM, a TGI [8] greater than 100 µM and a TGI [9] greater than 100 µM. The TGI [10] was greater than 100 µM, the TGI [11] was greater than 100 µM and the TGI [12] was greater than 100 µM. It also gave a TGI [13] greater than 100 µM, a TGI [14] greater than 100 µM and a TGI [15] greater than 100 µM. It also gave a TGI [16] greater than 100 µM, a TGI [17] greater than 100 µM and a TGI [18] greater than 100 µM. For the same compound, the TGI [19] was greater than 100 µM, the TGI [20] was greater than 100 µM and the TGI [21] was greater than 100 µM. It also gave a TGI [22] greater than 100 µM, a TGI [23] greater than 100 µM and a TGI [24] greater than 100 µM. It also gave a TGI [25] greater than 100 µM, a TGI [26] greater than 100 µM and a TGI [27] greater than 100 µM. For the same compound, the TGI [28] was greater than 100 µM, the TGI [29] was greater than 100 µM and the TGI [30] was greater than 100 µM. The TGI [31] was greater than 100 µM, the TGI [32] was greater than 100 µM and the TGI [33] was greater than 100 µM. It also gave a TGI [34] greater than 100 µM, a TGI [35] greater than 100 µM and a TGI [36] greater than 100 µM. It also gave a TGI [37] greater than 100 µM, a TGI [38] greater than 100 µM and a TGI [39] greater than 100 µM. For the same compound, the TGI [40] was greater than 100 µM, the TGI [41] was greater than 100 µM and the TGI [42] was greater than 100 µM. It also gave a TGI [43] greater than 100 µM, a TGI [44] greater than 100 µM and a TGI [45] greater than 100 µM. For the same compound, the TGI [46] was greater than 100 µM, the TGI [47] was greater than 100 µM and the TGI [48] was greater than 100 µM. It also gave a TGI [49] greater than 100 µM, a TGI [50] greater than 100 µM and a TGI [51] greater than 100 µM. For the same compound, the TGI [52] was greater than 100 µM and the TGI [53] was greater than 100 µM.

`O=c1c(C(=Nc2ccccc2)c2ccccc2)c[nH]n1-c1ccccc1` was tested, and the TGI [1] was greater than 100 µM, the TGI [2] was greater than 100 µM and the TGI [4] was greater than 100 µM. It also gave a TGI [5] greater than 100 µM, a TGI [6] greater than 100 µM and a TGI [7] greater than 100 µM. It also gave a TGI [8] greater than 100 µM, a TGI [10] greater than 100 µM and a TGI [11] greater than 100 µM. It also gave a TGI [12] greater than 100 µM, a TGI [13] greater than 100 µM and a TGI [14] greater than 100 µM. It also gave a TGI [15] of 72.8 µM, a TGI [16] greater than 100 µM and a TGI [17] greater than 100 µM. It also gave a TGI [18] greater than 100 µM, a TGI [19] greater than 100 µM and a TGI [20] greater than 100 µM. It also gave a TGI [54] greater than 100 µM, a TGI [55] greater than 100 µM and a TGI [21] greater than 100 µM. For the same compound, the TGI [56] was greater than 100 µM, the TGI [23] was greater than 100 µM and the TGI [24] was greater than 100 µM. It also gave a TGI [25] greater than 100 µM, a TGI [26] greater than 100 µM and a TGI [27] greater than 100 µM. For the same compound, the TGI [28] was greater than 100 µM, the TGI [29] was greater than 100 µM and the TGI [31] was greater than 100 µM. The TGI [32] was greater than 100 µM, the TGI [33] was greater than 100 µM and the TGI [35] was greater than 100 µM. For the same compound, the TGI [36] was greater than 100 µM, the TGI [37] was greater than 100 µM and the TGI [38] was greater than 100 µM. For the same compound, the TGI [39] was greater than 100 µM, the TGI [40] was greater than 100 µM and the TGI [41] was greater than 100 µM. For the same compound, the TGI [42] was greater than 100 µM, the TGI [43] was greater than 100 µM and the TGI [44] was greater than 100 µM. The TGI [45] was greater than 100 µM, the TGI [46] was greater than 100 µM and the TGI [47] was greater than 100 µM. The TGI [57] was greater than 100 µM, the TGI [49] was greater than 100 µM and the TGI [50] was greater than 100 µM. It also gave a TGI [51] greater than 100 µM, a TGI [52] greater than 100 µM and a TGI [53] greater than 100 µM.

For `CCc1c(C)[nH]c2c1/C(=N/N=C1\CCCc3[nH]c(C)c(CC)c31)CCC2`, the TGI [1] was greater than 100 µM, the TGI [2] was greater than 100 µM and the TGI [3] was 48.3 µM. The TGI [4] was 31.9 µM, the TGI [5] was 78.2 µM and the TGI [6] was 34.1 µM. It also gave a TGI [7] of 62.7 µM, a TGI [8] of 52 µM and a TGI [10] greater than 100 µM. For the same compound, the TGI [11] was 54.6 µM, the TGI [12] was greater than 100 µM and the TGI [13] was 85.8 µM. For the same compound, the TGI [14] was 48.8 µM, the TGI [15] was 70.5 µM and the TGI [16] was greater than 100 µM. It also gave a TGI [17] of 43.2 µM, a TGI [18] of 35.4 µM and a TGI [19] greater than 100 µM. It also gave a TGI [20] of 78.4 µM, a TGI [54] greater than 100 µM and a TGI [55] greater than 100 µM. For the same compound, the TGI [21] was 27.6 µM, the TGI [56] was 76.4 µM and the TGI [22] was 51.5 µM. It also gave a TGI [23] of 41.2 µM, a TGI [24] greater than 100 µM and a TGI [25] of 36.7 µM. It also gave a TGI [26] of 52.5 µM, a TGI [27] of 61.9 µM and a TGI [28] greater than 100 µM. It also gave a TGI [29] of 69.2 µM, a TGI [30] of 50.5 µM and a TGI [31] of 36.4 µM. The TGI [58] was greater than 100 µM, the TGI [32] was 81.5 µM and the TGI [33] was 33.9 µM. The TGI [34] was 39.7 µM, the TGI [35] was 30.2 µM and the TGI [36] was 39.4 µM. For the same compound, the TGI [37] was 46.6 µM, the TGI [38] was greater than 100 µM and the TGI [39] was 83.6 µM. The TGI [40] was 35.9 µM, the TGI [41] was 41.6 µM and the TGI [42] was 31.3 µM. The TGI [43] was 81.3 µM, the TGI [44] was 39.5 µM and the TGI [45] was greater than 100 µM. For the same compound, the TGI [46] was 78 µM, the TGI [47] was greater than 100 µM and the TGI [48] was 39.7 µM. It also gave a TGI [57] of 75 µM, a TGI [49] of 50.1 µM and a TGI [50] greater than 100 µM. The TGI [51] was greater than 100 µM, the TGI [52] was 34.4 µM and the TGI [53] was 33.1 µM.
